Measured values as given in ChEMBL document CHEMBL4507276 (2021).

How the values were obtained:
[1] = target: Histamine H3 receptor (Homo sapiens) (UniProt Q9Y5N1); settings: Compound concentration 10.0 uM
[2] = target: Leucine-rich repeat serine/threonine-protein kinase 2 (Homo sapiens) (UniProt Q5S007); settings: Compound concentration 1000.0 nM
[3] = tested on: Proto-oncogene tyrosine-protein kinase receptor Ret (Homo sapiens), P07949 [V804L]; settings: Compound concentration 1000.0 nM
[4] = target: Serine/threonine-protein kinase pim-1 (Homo sapiens) (UniProt P11309); settings: Compound concentration 1000.0 nM
[5] = target: T1, cGMP-dependent protein kinase 1 (Homo sapiens) (UniProt Q13976); settings: Compound concentration 1000.0 nM
T1 sequence (whole entry): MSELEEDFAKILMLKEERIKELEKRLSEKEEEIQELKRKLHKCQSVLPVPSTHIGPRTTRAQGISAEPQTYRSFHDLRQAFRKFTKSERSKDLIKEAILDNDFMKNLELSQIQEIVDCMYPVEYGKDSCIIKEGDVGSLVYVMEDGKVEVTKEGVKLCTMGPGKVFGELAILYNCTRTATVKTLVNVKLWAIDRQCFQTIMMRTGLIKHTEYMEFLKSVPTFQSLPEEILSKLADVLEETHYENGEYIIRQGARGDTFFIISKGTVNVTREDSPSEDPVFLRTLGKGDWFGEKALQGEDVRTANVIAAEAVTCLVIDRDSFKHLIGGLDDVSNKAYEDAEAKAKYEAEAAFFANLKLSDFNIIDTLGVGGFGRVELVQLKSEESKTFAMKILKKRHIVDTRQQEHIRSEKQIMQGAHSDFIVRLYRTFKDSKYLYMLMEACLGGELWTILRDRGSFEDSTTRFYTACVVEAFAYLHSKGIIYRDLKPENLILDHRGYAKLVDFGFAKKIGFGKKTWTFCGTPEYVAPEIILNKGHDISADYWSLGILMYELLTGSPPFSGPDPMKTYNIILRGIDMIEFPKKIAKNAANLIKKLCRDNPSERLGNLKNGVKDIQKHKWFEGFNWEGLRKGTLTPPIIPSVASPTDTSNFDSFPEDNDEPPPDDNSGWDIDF

[6] = target: T2, Mitogen-activated protein kinase kinase kinase kinase 2 (Homo sapiens) (UniProt Q12851); settings: Compound concentration 1000.0 nM
T2 sequence (whole entry): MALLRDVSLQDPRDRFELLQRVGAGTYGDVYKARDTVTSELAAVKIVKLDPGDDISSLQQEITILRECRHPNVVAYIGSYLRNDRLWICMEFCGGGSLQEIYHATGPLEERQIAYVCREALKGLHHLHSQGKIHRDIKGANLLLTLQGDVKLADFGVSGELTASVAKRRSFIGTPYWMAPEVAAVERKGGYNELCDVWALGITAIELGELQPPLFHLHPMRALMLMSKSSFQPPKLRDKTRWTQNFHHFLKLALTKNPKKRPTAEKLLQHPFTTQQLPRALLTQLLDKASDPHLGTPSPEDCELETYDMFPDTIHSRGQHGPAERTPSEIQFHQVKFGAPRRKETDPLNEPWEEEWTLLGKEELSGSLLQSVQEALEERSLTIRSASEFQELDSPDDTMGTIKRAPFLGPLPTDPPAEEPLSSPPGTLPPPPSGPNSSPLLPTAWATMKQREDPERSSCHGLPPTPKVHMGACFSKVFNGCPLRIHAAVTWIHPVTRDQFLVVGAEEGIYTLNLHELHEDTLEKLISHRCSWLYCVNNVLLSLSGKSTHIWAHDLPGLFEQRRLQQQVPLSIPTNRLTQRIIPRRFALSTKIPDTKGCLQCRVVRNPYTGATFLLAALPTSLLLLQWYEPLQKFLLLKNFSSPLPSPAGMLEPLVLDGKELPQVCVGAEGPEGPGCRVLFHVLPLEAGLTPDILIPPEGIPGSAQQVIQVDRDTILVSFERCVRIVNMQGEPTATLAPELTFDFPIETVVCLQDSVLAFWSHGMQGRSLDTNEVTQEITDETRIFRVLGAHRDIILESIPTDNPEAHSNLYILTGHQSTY

[7] = target: Serine/threonine-protein kinase LATS2 (Homo sapiens) (UniProt Q9NRM7); settings: Compound concentration 1000.0 nM
[8] = target: Tyrosine-protein kinase Fes/Fps (Homo sapiens) (UniProt P07332); settings: Compound concentration 1000.0 nM
Chain of Tyrosine-protein kinase Fes/Fps (Homo sapiens) (P07332 whole entry): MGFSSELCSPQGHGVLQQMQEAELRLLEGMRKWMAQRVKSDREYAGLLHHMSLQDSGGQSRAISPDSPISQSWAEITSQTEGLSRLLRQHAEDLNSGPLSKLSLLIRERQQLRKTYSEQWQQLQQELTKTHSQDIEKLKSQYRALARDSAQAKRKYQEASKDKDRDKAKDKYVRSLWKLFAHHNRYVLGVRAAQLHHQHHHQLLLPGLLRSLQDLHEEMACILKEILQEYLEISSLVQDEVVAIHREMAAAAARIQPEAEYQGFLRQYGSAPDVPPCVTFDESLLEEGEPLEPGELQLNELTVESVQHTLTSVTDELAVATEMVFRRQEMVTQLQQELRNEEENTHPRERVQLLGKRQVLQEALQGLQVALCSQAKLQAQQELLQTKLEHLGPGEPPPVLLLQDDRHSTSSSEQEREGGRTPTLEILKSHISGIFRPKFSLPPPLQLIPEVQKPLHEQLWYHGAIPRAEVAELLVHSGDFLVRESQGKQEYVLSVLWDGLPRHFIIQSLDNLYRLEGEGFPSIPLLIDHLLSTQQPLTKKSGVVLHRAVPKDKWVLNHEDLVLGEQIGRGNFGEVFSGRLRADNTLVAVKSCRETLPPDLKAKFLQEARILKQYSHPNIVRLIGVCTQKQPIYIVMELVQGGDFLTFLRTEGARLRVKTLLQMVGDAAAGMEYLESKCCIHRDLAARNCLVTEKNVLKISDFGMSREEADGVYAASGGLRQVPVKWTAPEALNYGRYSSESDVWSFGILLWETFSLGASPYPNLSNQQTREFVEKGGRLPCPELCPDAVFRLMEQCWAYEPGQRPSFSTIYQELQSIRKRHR

[9] = tested on: Proto-oncogene tyrosine-protein kinase receptor Ret (Homo sapiens), P07949 [V804M]; settings: Compound concentration 1000.0 nM
Chain of Proto-oncogene tyrosine-protein kinase receptor Ret (Homo sapiens), P07949 [V804M] (P07949 whole entry V804M): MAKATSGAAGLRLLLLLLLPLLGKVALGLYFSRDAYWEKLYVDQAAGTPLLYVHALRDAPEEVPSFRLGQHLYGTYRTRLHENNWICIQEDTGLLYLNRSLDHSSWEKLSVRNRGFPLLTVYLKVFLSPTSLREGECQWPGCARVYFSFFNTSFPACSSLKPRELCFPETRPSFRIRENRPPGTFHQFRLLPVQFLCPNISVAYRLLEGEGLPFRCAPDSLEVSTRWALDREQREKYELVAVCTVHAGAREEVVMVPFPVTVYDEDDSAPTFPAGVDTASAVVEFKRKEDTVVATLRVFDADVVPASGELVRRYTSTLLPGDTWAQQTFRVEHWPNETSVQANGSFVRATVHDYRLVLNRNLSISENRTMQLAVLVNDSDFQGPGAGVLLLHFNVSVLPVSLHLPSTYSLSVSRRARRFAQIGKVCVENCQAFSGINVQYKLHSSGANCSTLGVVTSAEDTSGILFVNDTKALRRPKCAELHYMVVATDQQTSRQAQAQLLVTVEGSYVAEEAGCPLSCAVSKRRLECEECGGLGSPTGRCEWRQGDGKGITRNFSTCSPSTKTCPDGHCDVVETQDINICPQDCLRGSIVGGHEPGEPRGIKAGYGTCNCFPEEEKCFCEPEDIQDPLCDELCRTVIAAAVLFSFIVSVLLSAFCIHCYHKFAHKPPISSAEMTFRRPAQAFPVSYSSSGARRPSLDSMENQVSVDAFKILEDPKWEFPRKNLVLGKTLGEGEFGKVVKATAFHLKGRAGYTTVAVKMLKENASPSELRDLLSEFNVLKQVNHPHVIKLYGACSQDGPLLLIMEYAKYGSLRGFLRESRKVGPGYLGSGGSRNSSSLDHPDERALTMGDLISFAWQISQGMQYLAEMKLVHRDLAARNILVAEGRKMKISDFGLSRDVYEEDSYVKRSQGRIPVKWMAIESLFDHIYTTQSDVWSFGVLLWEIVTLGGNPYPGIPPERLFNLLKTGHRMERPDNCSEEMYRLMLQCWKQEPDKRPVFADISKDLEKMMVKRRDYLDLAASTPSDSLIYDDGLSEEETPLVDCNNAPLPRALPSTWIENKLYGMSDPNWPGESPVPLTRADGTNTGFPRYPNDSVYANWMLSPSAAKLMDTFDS

[10] = tested on: Tyrosine-protein kinase ABL1 (Homo sapiens), P00519 [M351T]; settings: Compound concentration 1000.0 nM
[11] = target: Misshapen-like kinase 1 (Homo sapiens) (UniProt Q8N4C8); settings: Compound concentration 1000.0 nM
[12] = tested on: Tyrosine-protein kinase ABL1 (Homo sapiens), P00519 [E255K]; settings: Compound concentration 1000.0 nM
[13] = target: Vascular endothelial growth factor receptor 2 (Homo sapiens) (UniProt P35968); settings: Compound concentration 1000.0 nM
[14] = target: Serine/threonine-protein kinase PknB (Mycobacterium tuberculosis) (UniProt P9WI81); settings: Compound concentration 1000.0 nM
[15] = target: Microtubule-associated serine/threonine-protein kinase 1 (Homo sapiens) (UniProt Q9Y2H9); settings: Compound concentration 1000.0 nM
[16] = target: Serine/threonine-protein kinase WNK1 (Homo sapiens) (UniProt Q9H4A3); settings: Compound concentration 1000.0 nM
Chain of Serine/threonine-protein kinase WNK1 (Homo sapiens) (Q9H4A3 whole entry, looked up): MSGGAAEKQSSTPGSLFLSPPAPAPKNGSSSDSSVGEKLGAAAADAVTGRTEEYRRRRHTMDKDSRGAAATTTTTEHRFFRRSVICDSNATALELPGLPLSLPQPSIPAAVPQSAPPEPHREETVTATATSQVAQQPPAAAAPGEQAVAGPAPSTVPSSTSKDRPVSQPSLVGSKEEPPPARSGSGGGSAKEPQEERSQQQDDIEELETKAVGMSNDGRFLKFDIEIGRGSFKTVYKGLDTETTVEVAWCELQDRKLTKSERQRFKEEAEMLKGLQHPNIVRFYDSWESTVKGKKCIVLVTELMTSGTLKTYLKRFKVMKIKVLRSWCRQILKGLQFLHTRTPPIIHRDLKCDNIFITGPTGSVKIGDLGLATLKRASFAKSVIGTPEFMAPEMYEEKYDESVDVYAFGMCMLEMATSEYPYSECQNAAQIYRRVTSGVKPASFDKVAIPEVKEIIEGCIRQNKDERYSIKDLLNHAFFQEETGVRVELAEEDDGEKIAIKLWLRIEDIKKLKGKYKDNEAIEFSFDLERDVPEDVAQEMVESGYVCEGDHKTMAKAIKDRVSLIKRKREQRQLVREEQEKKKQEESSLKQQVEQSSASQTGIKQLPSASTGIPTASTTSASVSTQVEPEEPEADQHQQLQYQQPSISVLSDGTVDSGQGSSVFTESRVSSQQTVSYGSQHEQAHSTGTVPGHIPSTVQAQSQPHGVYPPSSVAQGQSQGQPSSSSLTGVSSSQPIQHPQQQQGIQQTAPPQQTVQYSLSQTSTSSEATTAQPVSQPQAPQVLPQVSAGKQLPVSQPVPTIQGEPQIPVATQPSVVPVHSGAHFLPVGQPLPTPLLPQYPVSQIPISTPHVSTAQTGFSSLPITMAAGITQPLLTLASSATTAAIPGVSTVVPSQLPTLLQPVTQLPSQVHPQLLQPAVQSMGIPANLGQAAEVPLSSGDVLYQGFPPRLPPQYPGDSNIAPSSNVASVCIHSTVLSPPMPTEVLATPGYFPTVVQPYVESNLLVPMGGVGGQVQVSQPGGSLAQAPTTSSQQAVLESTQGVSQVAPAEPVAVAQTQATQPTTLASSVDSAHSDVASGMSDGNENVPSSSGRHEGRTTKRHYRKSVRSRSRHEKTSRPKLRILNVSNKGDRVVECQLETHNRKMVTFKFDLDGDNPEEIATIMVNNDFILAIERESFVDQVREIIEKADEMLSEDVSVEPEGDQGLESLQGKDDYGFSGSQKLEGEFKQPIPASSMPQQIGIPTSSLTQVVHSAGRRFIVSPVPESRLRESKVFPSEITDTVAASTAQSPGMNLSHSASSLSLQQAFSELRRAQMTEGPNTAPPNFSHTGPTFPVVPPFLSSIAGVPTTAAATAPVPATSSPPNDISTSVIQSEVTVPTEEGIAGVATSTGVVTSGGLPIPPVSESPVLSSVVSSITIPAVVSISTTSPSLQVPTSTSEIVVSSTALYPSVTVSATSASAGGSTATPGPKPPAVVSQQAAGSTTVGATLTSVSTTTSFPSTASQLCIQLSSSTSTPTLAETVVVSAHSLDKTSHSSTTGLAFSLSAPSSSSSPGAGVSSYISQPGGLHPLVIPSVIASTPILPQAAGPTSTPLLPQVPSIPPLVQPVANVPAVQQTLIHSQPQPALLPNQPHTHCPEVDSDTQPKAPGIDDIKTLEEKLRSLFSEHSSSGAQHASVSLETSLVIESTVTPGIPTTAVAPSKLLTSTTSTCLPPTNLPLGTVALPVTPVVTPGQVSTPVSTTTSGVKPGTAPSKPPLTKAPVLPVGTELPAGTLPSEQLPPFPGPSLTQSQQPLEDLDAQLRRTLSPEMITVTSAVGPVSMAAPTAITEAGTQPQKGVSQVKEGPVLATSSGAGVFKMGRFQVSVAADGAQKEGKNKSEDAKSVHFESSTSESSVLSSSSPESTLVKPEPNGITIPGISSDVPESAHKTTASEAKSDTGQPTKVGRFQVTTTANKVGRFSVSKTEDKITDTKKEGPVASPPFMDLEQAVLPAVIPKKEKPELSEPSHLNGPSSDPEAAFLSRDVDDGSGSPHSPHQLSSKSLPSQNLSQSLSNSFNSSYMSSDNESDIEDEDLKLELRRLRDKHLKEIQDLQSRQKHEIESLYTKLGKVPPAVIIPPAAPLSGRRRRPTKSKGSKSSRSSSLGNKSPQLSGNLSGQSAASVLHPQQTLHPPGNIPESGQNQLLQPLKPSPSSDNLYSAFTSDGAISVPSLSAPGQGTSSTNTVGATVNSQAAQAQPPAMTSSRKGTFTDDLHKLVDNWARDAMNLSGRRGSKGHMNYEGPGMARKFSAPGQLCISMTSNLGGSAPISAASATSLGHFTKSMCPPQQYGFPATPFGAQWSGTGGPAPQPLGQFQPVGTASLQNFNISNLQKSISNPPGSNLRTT

[17] = target: Serine/threonine-protein kinase Chk2 (Homo sapiens) (UniProt O96017); settings: Compound concentration 1000.0 nM
[18] = target: Mitogen-activated protein kinase kinase kinase 6 (Homo sapiens) (UniProt O95382); settings: Compound concentration 1000.0 nM
[19] = target: Serine/threonine-protein kinase 16 (Homo sapiens) (UniProt O75716); settings: Compound concentration 1000.0 nM
Chain of Serine/threonine-protein kinase 16 (Homo sapiens) (O75716 whole entry): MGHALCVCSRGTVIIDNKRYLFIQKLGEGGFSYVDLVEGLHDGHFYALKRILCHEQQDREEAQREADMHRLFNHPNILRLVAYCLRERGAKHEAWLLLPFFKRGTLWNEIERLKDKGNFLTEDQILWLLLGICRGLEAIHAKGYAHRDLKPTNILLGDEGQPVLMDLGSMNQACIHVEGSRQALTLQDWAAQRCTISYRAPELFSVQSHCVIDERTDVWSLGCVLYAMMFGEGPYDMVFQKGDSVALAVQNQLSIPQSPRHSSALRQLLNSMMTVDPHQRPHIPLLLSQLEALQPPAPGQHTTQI

[20] = target: Dual specificity mitogen-activated protein kinase kinase 1 (Homo sapiens) (UniProt Q02750); settings: Compound concentration 1000.0 nM
Chain of Dual specificity mitogen-activated protein kinase kinase 1 (Homo sapiens) (Q02750 whole entry): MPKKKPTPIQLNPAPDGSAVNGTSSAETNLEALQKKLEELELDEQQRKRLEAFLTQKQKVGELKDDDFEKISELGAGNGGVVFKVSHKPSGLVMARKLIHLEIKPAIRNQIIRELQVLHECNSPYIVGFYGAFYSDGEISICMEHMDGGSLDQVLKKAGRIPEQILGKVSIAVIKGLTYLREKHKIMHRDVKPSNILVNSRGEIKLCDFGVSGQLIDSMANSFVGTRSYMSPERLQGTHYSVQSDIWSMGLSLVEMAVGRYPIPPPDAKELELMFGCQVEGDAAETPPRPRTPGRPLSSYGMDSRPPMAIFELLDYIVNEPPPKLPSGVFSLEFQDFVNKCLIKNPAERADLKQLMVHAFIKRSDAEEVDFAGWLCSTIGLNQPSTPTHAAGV

Chain of Proto-oncogene tyrosine-protein kinase receptor Ret (Homo sapiens), P07949 [V804L] (P07949 whole entry V804L): as the sequence (P07949 whole entry V804M) above, with M804L counted along it

Work on `CN(C)C(=O)Cn1cc(-c2nc(C3(c4ccc(-c5cnc(N)nc5)cc4)CC3)no2)cn1` [BI 0153] yielded an inhibition [1] of 3.45%, a residual activity [2] of 100% and a residual activity [3] of 100%. For the same compound, the residual activity [4] was 100%, the residual activity [5] was 89% and the residual activity [6] was 89%. For the same compound, the residual activity [7] was 46%, the residual activity [8] was 100% and the residual activity [9] was 100%. It also gave a residual activity [10] of 100%, a residual activity [11] of 91% and a residual activity [12] of 100%. It also gave a residual activity [13] of 70%, a residual activity [14] of 85% and a residual activity [15] of 100%. The residual activity [16] was 97%, the residual activity [17] was 100% and the residual activity [18] was 78%. The residual activity [19] was 100% and the residual activity [20] was 82%.

With `CN(C)C(=O)Cn1cc(-c2nc([C@@](C)(c3ccc(-c4cnc(N)nc4)cc3)C3CC3)no2)cn1` [BI 665915] the inhibition [1] was 11%, the residual activity [2] was 74% and the residual activity [3] was 93%. For the same compound, the residual activity [4] was 100%, the residual activity [5] was 100% and the residual activity [6] was 100%. For the same compound, the residual activity [7] was 74%, the residual activity [8] was 100% and the residual activity [9] was 97%. The residual activity [10] was 80%, the residual activity [11] was 85% and the residual activity [12] was 95%. It also gave a residual activity [13] of 87%, a residual activity [14] of 100% and a residual activity [15] of 97%. For the same compound, the residual activity [16] was 94%, the residual activity [17] was 100% and the residual activity [18] was 90%. The residual activity [19] was 100% and the residual activity [20] was 89%.
